From US20060069132A1, “Azolecarboxamide herbicides” (priority 2004, published 2006)

Columns and labels:
[1] = test system: barnyardgrass; assay: Test B pre-/postemergence herbicide test; format: in vivo, Echinochloa crus-galli; conditions: for Plant response rating (0 to 100 scale), Barnyardgrass: 0 is no effect; for Barnyardgrass plant response rating: postemergence
Summary of the method: (§1)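 Evaluation is visual, comparing treated with control plants on a scale where 0 means no effect and 100 means full control. Treatments were preemergence, or postemergence on seedlings 2–18 cm tall, and held 13–15 days in the greenhouse.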

[2] = test system: Surinam grass; assay: Test B pre-/postemergence herbicide test; format: in vivo, Urochloa decumbens; conditions: for Plant response rating (0 to 100 scale), Surinam Grass: 0 is no effect
Summary of the method: (§2)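 Pre: seeds sown, then sprayed. Post: 1–4-leaf plants (2–18 cm) sprayed at the same time. Paddy: flooded, treated at 2-leaf stage. Formulation: non-phytotoxic solvent with surfactant. Greenhouse 13–15 days; visual 0–100 score relative to controls.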

[3] = test system: cocklebur; assay: Test B pre-/postemergence herbicide test; format: in vivo, Xanthium strumarium; conditions: for Plant response rating (0 to 100 scale), Cocklebur: 0 is no effect; for Cocklebur plant response rating: postemergence
Summary of the method: as §1

[4] = test system: corn; assay: Test B pre-/postemergence herbicide test; format: in vivo, Zea mays; conditions: for Plant response rating (0 to 100 scale), Corn: 0 is no effect; for Corn plant response rating: postemergence
Summary of the method: as §2

[5] = test system: large crabgrass; assay: Test B pre-/postemergence herbicide test; format: in vivo, Digitaria sanguinalis; conditions: for Crabgrass, Large plant response rating: postemergence
Summary of the method: as §2

[6] = test system: giant foxtail; assay: Test B pre-/postemergence herbicide test; format: in vivo, Setaria faberi; conditions: for Plant response rating (0 to 100 scale), Foxtail, Giant: 0 is no effect; for Foxtail, Giant plant response rating: postemergence
Summary of the method: as §2

[7] = test system: lambsquarters; assay: Test B pre-/postemergence herbicide test; format: in vivo, Chenopodium album; conditions: for Plant response rating (0 to 100 scale), Lambsquarters: 0 is no effect
Summary of the method: as §2

[8] = test system: morningglory; assay: Test B pre-/postemergence herbicide test; format: in vivo, Ipomoea coccinea; conditions: for Plant response rating (0 to 100 scale), Morningglory: 0 is no effect
Summary of the method: as §1

[9] = test system: pigweed; assay: Test B pre-/postemergence herbicide test; format: in vivo, Amaranthus retroflexus; conditions: for Plant response rating (0 to 100 scale), Pigweed: 0 is no effect
Summary of the method: as §2

[10] = test system: velvetleaf; assay: Test B pre-/postemergence herbicide test; format: in vivo, Abutilon theophrasti; conditions: for Plant response rating (0 to 100 scale), Velvetleaf: 0 is no effect, preemergence
Summary of the method: as §2

[11] = test system: blackgrass; assay: Test B postemergence herbicide test; format: in vivo, Alopecurus myosuroides; conditions: postemergence
Summary of the method: (§3)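 Each value is a visual 0–100 response rating taken against controls 13 to 15 days after treatment in the greenhouse. Plants received formulated chemical postemergence at the 1- to 4-leaf stage or, in flooded paddy, at the 2-leaf stage.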

[12] = test system: wheat; assay: Test B postemergence herbicide test; format: in vivo, Triticum aestivum; set-up: key to Wheat plant response rating: 0 = no effect, 100 = complete control
Summary of the method: as §3

[13] = test system: wild oat; assay: Test B postemergence herbicide test; format: in vivo, Avena fatua
Summary of the method: as §3

[14] = test system: rice; assay: Test B flooded paddy test; format: in vivo, Oryza sativa; conditions: 1000 g ai/ha, scale 0 to 100 (0 no effect, 100 complete control)
Summary of the method: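 Plants grow to 1- to 4-leaf stage (2–18 cm) for postemergence spraying, or to 2-leaf stage for the paddy test. Formulated compound is applied. Greenhouse holding lasts 13–15 days. Response is scored visually relative to controls, 0 no effect to 100 complete control; a dash means no result.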

[15] = test system: small flower umbrella sedge; assay: Test B flooded paddy test; format: in vivo, Cyperus difformis; conditions: 1000 g ai/ha, scale 0 to 100 (0 no effect, 100 complete control)
Summary of the method: as §3

[16] = test system: ducksalad; assay: Test B flooded paddy test; format: in vivo, Heteranthera limosa; conditions: 1000 g ai/ha, scale 0 to 100 (0 no effect, 100 complete control)
Summary of the method: as §3

[17] = test system: barnyardgrass; assay: Test B flooded paddy test; format: in vivo, Echinochloa crus-galli; conditions: 1000 g ai/ha, scale 0 to 100 (0 no effect, 100 complete control)
Summary of the method: as §3

[18] = test system: rice; assay: Test C flooded paddy test; format: in vivo, Oryza sativa; conditions: for Plant response rating, Rice: 500 g ai/ha, visual rating after 12 to 14 days
Summary of the method: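 Plants were grown to the 1- to 4-leaf stage (2–18 cm) and then treated postemergence, or grown to the 2-leaf stage for the flooded paddy test. They were held in a greenhouse for 12 to 14 days and then scored by eye against controls, where 0 is no effect and 100 is complete control.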

[19] = test system: smallflower umbrella sedge; assay: Test C flooded paddy test; format: in vivo, Cyperus difformis; conditions: for Plant response rating, Sedge, Umbrella: 500 g ai/ha, visual rating after 12 to 14 days
[20] = test system: ducksalad; assay: Test C flooded paddy test; format: in vivo, Heteranthera limosa; conditions: for Plant response rating, Ducksalad: 500 g ai/ha, visual rating after 12 to 14 days
[21] = test system: barnyardgrass; assay: Test C flooded paddy test; format: in vivo, Echinochloa crus-galli; conditions: for Plant response rating, Barnyardgrass: 500 g ai/ha, visual rating after 12 to 14 days
Summary of the method: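 Ratings (0 = no effect, 100 = complete control) come from visual comparison with untreated plants after 12 to 14 days in the greenhouse. Treatment was postemergence at the 1- to 4-leaf stage (2–18 cm), or at the 2-leaf stage for the flooded paddy barnyardgrass.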

[22] = 125 g ai/ha, 100 is complete control, preemergence
[23] = 125 g ai/ha, visual rating, scale 0 (no effect) to 100 (complete control)
[24] = 500 g ai/ha, scale 0 to 100, 0 is no effect, 100 is complete control
[25] = 125 g ai/ha, visual rating, scale 0 (no effect) to 100 (complete control), postemergence
[26] = Postemergence, 500 g ai/ha, scale 0 (no effect) to 100 (complete control)
[27] = 125 g ai/ha, 100 is complete control
[28] = 125 g ai/ha, scale 0 to 100 (0 no effect, 100 complete control)
[29] = 250 g ai/ha, scale of 0 to 100, 0 is no effect, 100 is complete control
[30] = scale 0 to 100 (0 no effect, 100 complete control)
[31] = 62 g ai/ha, scale 0 to 100 (0 no effect, 100 complete control)
[32] = 500 g ai/ha, visual rating, 0 = no effect, 100 = complete control, preemergence
[33] = postemergence, 500 g ai/ha, scale 0 to 100, 0 is no effect, 100 is complete control

SMILES: Cc1nn(C(C)(C)C)nc1C(=O)Nc1cc(C(=O)N(C)C)ccc1F [Compound 378]
- Plant response rating (0 to 100 scale), Barnyardgrass [1, 22]: 30
- Barnyardgrass plant response rating [1, 23]: 0
- Barnyardgrass plant response rating [1, 24]: 0
- Plant response rating (0 to 100 scale), Surinam Grass [2, 22]: 0
- Surinam Grass plant response rating [2, 25]: 10
- Surinam Grass plant response rating [2, 26]: 20
- Plant response rating (0 to 100 scale), Cocklebur [3, 22]: 0
- Cocklebur plant response rating [3, 23]: 0
- Cocklebur plant response rating [3, 24]: 0
- Plant response rating (0 to 100 scale), Corn [4, 22]: 30
- Corn plant response rating [4, 23]: 0
- Corn plant response rating [4, 24]: 10
- Crabgrass, Large plant response rating [5, 23]: 0
- Crabgrass, Large plant response rating [5, 24]: 10
- Plant response rating (0 to 100 scale), Foxtail, Giant [6, 22]: 30
- Foxtail, Giant plant response rating [6, 23]: 0
- Foxtail, Giant plant response rating [6, 24]: 30
- Plant response rating (0 to 100 scale), Lambsquarters [7, 22]: 90
- Lambsquarters plant response rating [7, 25]: 40
- Lambsquarters plant response rating [7, 26]: 70
- Plant response rating (0 to 100 scale), Morningglory [8, 22]: 0
- Morningglory plant response rating [8, 25]: 20
- Morningglory plant response rating [8, 26]: 30
- Plant response rating (0 to 100 scale), Pigweed [9, 22]: 90
- Pigweed plant response rating [9, 25]: 40
- Pigweed plant response rating [9, 26]: 70
- Plant response rating (0 to 100 scale), Velvetleaf [10, 27]: 50
- Velvetleaf plant response rating [10, 25]: 10
- Velvetleaf plant response rating [10, 26]: 40
- Blackgrass plant response rating [11, 23]: 0
- Blackgrass plant response rating [11, 24]: 0
- Wheat plant response rating [12, 25]: 0
- Wheat plant response rating ([12]; 500 g ai/ha, scale 0 to 100, 0 no effect, 100 complete control, preemergence): 100
- Wheat plant response rating [12, 26]: 0
- Oat, Wild plant response rating [13, 25]: 0
- Oat, Wild plant response rating [13, 26]: 20
- Rice plant response rating [14]: 70
- Sedge, Umbrella plant response rating [15]: 80
- Ducksalad plant response rating [16]: 90
- Barnyardgrass plant response rating [17]: 80
- Rice plant response rating ([18]; 62 g ai/ha, scale 0 to 100): 0
- Rice plant response rating [18, 28]: 10
- Rice plant response rating [18, 29]: 30
- Plant response rating, Rice [18, 30]: 60
- Sedge, Umbrella plant response rating ([19]; 62 g ai/ha, scale 0 to 100): 0
- Sedge, Umbrella plant response rating [19, 28]: 15
- Sedge, Umbrella plant response rating [19, 29]: 55
- Plant response rating, Sedge, Umbrella [19, 30]: 80
- Ducksalad plant response rating ([20]; 62 g ai/ha, scale 0 to 100): 0
- Ducksalad plant response rating [20, 28]: 0
- Ducksalad plant response rating [20, 29]: 20
- Plant response rating, Ducksalad [20, 30]: 75
- Barnyardgrass plant response rating [21, 31]: 0
- Barnyardgrass plant response rating [21, 28]: 0
- Barnyardgrass plant response rating [21, 29]: 0
- Plant response rating, Barnyardgrass [21, 30]: 50

SMILES: CCNC(=O)c1cccc(NC(=O)c2nn(C(C)C)nc2CC)c1 [Compound 357]
- Plant response rating (0 to 100 scale), Barnyardgrass [1, 22]: 30
- Barnyardgrass plant response rating [1, 23]: 0
- Plant response rating, Barnyardgrass [1, 32]: 80
- Barnyardgrass plant response rating [1, 24]: 10
- Plant response rating (0 to 100 scale), Surinam Grass [2, 22]: 30
- Surinam Grass plant response rating [2, 25]: 10
- Plant response rating, Surinam Grass [2, 32]: 80
- Surinam Grass plant response rating [2, 33]: 20
- Plant response rating (0 to 100 scale), Cocklebur [3, 22]: 0
- Cocklebur plant response rating [3, 23]: 10
- Plant response rating, Cocklebur [3, 32]: 30
- Cocklebur plant response rating [3, 24]: 20
- Plant response rating (0 to 100 scale), Corn [4, 22]: 0
- Corn plant response rating [4, 23]: 0
- Plant response rating, Corn [4, 32]: 80
- Corn plant response rating [4, 24]: 20
- Plant response rating (0 to 100 scale), Crabgrass, Large ([5]; 125 g ai/ha, 0 is no effect, 100 is complete control, preemergence): 70
- Crabgrass, Large plant response rating [5, 23]: 0
- Plant response rating, Crabgrass, Large [5, 32]: 100
- Crabgrass, Large plant response rating [5, 24]: 10
- Plant response rating (0 to 100 scale), Foxtail, Giant [6, 22]: 20
- Foxtail, Giant plant response rating [6, 23]: 30
- Plant response rating, Foxtail, Giant [6, 32]: 100
- Foxtail, Giant plant response rating [6, 24]: 40
- Plant response rating (0 to 100 scale), Lambsquarters [7, 22]: 90
- Lambsquarters plant response rating [7, 25]: 30
- Plant response rating, Lambsquarters [7, 32]: 100
- Lambsquarters plant response rating [7, 33]: 60
- Plant response rating (0 to 100 scale), Morningglory [8, 22]: 10
- Morningglory plant response rating [8, 25]: 10
- Plant response rating, Morningglory [8, 32]: 70
- Morningglory plant response rating [8, 33]: 30
- Plant response rating (0 to 100 scale), Pigweed [9, 22]: 100
- Pigweed plant response rating [9, 25]: 20
- Plant response rating, Pigweed [9, 32]: 100
- Pigweed plant response rating [9, 33]: 40
- Plant response rating (0 to 100 scale), Velvetleaf [10, 27]: 0
- Velvetleaf plant response rating [10, 25]: 20
- Velvetleaf plant response rating [10, 33]: 20
- Blackgrass plant response rating [11, 23]: 0
- Blackgrass plant response rating [11, 24]: 30
- Wheat plant response rating [12, 25]: 0
- Wheat plant response rating [12, 33]: 0
- Oat, Wild plant response rating [13, 25]: 0
- Oat, Wild plant response rating [13, 33]: 30
- Rice plant response rating [14]: 70
- Sedge, Umbrella plant response rating [15]: 80
- Ducksalad plant response rating [16]: 80
- Barnyardgrass plant response rating [17]: 70
- Rice plant response rating ([18]; 62 g ai/ha, scale 0 to 100): 0
- Rice plant response rating [18, 28]: 0
- Rice plant response rating [18, 29]: 45
- Plant response rating, Rice [18, 30]: 70
- Sedge, Umbrella plant response rating ([19]; 62 g ai/ha, scale 0 to 100): 40
- Sedge, Umbrella plant response rating [19, 28]: 85
- Sedge, Umbrella plant response rating [19, 29]: 90
- Plant response rating, Sedge, Umbrella [19, 30]: 95
- Ducksalad plant response rating ([20]; 62 g ai/ha, scale 0 to 100): 30
- Ducksalad plant response rating [20, 28]: 30
- Ducksalad plant response rating [20, 29]: 45
- Plant response rating, Ducksalad [20, 30]: 95
- Barnyardgrass plant response rating [21, 31]: 0
- Barnyardgrass plant response rating [21, 28]: 0
- Barnyardgrass plant response rating [21, 29]: 30
- Plant response rating, Barnyardgrass [21, 30]: 55
